In patent publication US20060257322A1, “Pharmaceutical agents that contain fluoroalkyl-containing metal complexes and epothilones” (priority 2005, published 2006):
“And” between values parts separate entries of the source, which are not always exact repeats. Equal entries are not always repeated. Where two headings read alike, the source gives them in different places.

Assays:
A549 lung tumors = assay type: in vivo, hairless mice; details: day 0 normalized to 1
Protocol: (§1) A549 lung tumors were induced in hairless mice (4×10^6 cells/30 μl of full medium). Animal weights and tumor surface areas/volumes were determined, and in this case, the tumor surface area or the tumor volume (based on an ellipsoid of revolution) was calculated. Length and width of the tumor were measured with vernier calipers. After reaching the size of a pea, the treatment was begun.
(§2) • (a) 20 mmol of Gd/l of the Gd complex compound as mentioned in Example 1 or 3 (as a comparison solution=Blank reading) • (b) 1.5 mmol/l of the epothilone as mentioned in Example 1 or 3, in aqueous hydroxypropyl-β-cyclodextrin solution (prior art) (For the production of formulations in the prior art, see WO 99/07692 and WO 00/4902 1) • (c) Formulation of Example 1 or 3 (formulation according to the invention) Dosages: • (a) 100 μmol of Gd/kg of body weight • (b) 11 μmol/kg or 18 μmol/kg of body weight • (c) 100 μmol of Gd/kg+11 (or 18) μmol of epothilone/kg of body weight (corresponds to the ratio in the formulation of Example 1 or 3).
(§3) The animal weights and tumor sizes were measured over a period of 20 days after intravenous administration.

[1] = assay type: in vivo, hairless mice; details: for Relative animal weights: day 0 (about 30-35 g) normalized to 1
Protocol: as §1, §2, §3

[2] = Day 5, 11 μmol of epothilone/kg of body weight i.v. (formulations: plus 100 μmol of Gd/kg)
[3] = Day 5, 18 μmol of epothilone/kg of body weight i.v. (formulations: plus 100 μmol of Gd/kg)
[4] = Day 11, 11 μmol of epothilone/kg of body weight i.v. (formulations: plus 100 μmol of Gd/kg)
[5] = Day 11, 18 μmol of epothilone/kg of body weight i.v. (formulations: plus 100 μmol of Gd/kg)
[6] = Day 15, 11 μmol of epothilone/kg of body weight i.v. (formulations: plus 100 μmol of Gd/kg)
[7] = Day 15, 18 μmol of epothilone/kg of body weight i.v. (formulations: plus 100 μmol of Gd/kg)
[8] = Day 20, 11 μmol of epothilone/kg of body weight i.v. (formulations: plus 100 μmol of Gd/kg)
[9] = Day 20, 18 μmol of epothilone/kg of body weight i.v. (formulations: plus 100 μmol of Gd/kg)
[10] = first days after substance administration, 11 μmol of epothilone/kg of body weight i.v.
[11] = first days after substance administration, 18 μmol of epothilone/kg of body weight i.v.

SMILES	Relative tumor surface area (A549 lung tumors; [2])	Relative tumor surface area (A549 lung tumors; [3])	Relative tumor surface area (A549 lung tumors; [4])	Relative tumor surface area (A549 lung tumors; [5])	Relative tumor surface area (A549 lung tumors; [6])	Relative tumor surface area (A549 lung tumors; [7])	Relative tumor surface area (A549 lung tumors; [8])	Relative tumor surface area (A549 lung tumors; [9])	Relative animal weights (in words) ([1]; mouse, in vivo, iv)	Relative animal weights [1, 2]	Relative animal weights [1, 3]	Relative animal weights [1, 4]	Relative animal weights [1, 5]	Relative animal weights [1, 6]	Relative animal weights [1, 7]	Relative animal weights [1, 8]	Relative animal weights [1, 9]	Relative animal weights (in words) [1, 10]	Relative animal weights (in words) [1, 11]
Cc1nc(/C=C(\Cl)[C@@H]2C[C@@H]3O[C@]3(C)CCC[C@H](C)[C@H](O)[C@@H](C)C(=O)C(C)(C)[C@@H](O)CC(=O)O2)cs1 [Epothilone C, (1S,3S(Z),7S,10R,11S,12S,16R)-7,11-Dihydroxy-3-(1-chloro-2-(2-methyl-4-thiazolyl)ethenyl)-8,8,10,12,16-pentamethyl-4,17-dioxabicyclo[14.1.0]heptadecane-5,9-dione]	1.1 ± 0.1	1.1 ± 0.1	1.4 ± 0.3	1.3 ± 0.3	1.5 ± 0.3	1.6 ± 0.3	1.5 ± 0.2	1.5 ± 0.2	small weight loss	–	–	–	–	–	–	–	–	–	–
C#CC[C@H]1C(=O)C(C)(C)[C@@H](O)CC(=O)O[C@H](/C(F)=C/c2csc(C)n2)C/C=C(/C)CCC[C@H](C)[C@@H]1O [Epothilone L, (4S,7R,8S,9S,13(Z),16S(Z))-4,8-Dihydroxy-16-(1-fluoro-2-(2-methylthiazol-4-yl)ethenyl)-7-(prop-2-in-1-yl)-1-oxa-5,5,9,13-tetramethyl-cyclohexadec-13-ene-2,6-dione]	1.1 ± 0.1	1.1 ± 0.1	1.3 ± 0.1	1.3 ± 0.2	1.5 ± 0.2	1.5 ± 0.2	1.5 ± 0.2	1.5 ± 0.1	–	0.93	0.94	0.96	0.95	0.97	0.97	0.98	0.96	small weight loss	small weight loss
C=CC[C@H]1C(=O)C(C)(C)[C@@H](O)CC(=O)O[C@H](c2ccc3sc(C)nc3c2)C[C@@H]2O[C@]2(C)CCC[C@H](C)[C@@H]1O [Epothilone F, (1S,3S,7S,10R,11S,12S,16R)-7,11-Dihydroxy-3-(2-methylbenzothiazol-5-yl)-10-(prop-2-en-1-yl)-8,8,12,16-tetramethyl-4,17-dioxabicyclo[14.1.0]heptadecane-5,9-dione]	1.1 ± 0.1	1.1 ± 0.1	1.3 ± 0.2	1.2 ± 0.2	1.5 ± 0.3	1.4 ± 0.1	1.5 ± 0.4	1.5 ± 0.2	–	0.94	0.92	0.97	0.93	0.97	0.97	0.96	0.99	small weight loss	small weight loss
CC[C@H]1C(=O)C(C)(C)[C@@H](O)CC(=O)O[C@H](/C(F)=C/c2ccccn2)C/C=C(/C)CCC[C@H](C)[C@@H]1O [Epothilone G, 4S,7R,8S,9S,13(Z),16S(Z)-4,8-Dihydroxy-16-(1-fluoro-2-(2-pyridyl)ethenyl)-7-ethyl-1-oxa-5,5,9,13-tetramethyl-cyclohexadec-13-ene-2,6-dione]	1.1 ± 0.1	1.1 ± 0.1	1.3 ± 0.1	1.3 ± 0.4	1.5 ± 0.3	1.5 ± 0.3	1.6 ± 0.2	1.6 ± 0.2	–	0.94	0.945	0.97	0.97	0.95	0.97	0.96	0.98	small weight loss	small weight loss
C#CC[C@H]1C(=O)C(C)(C)[C@@H](O)CC(=O)O[C@H](/C(F)=C/c2coc(C)n2)C/C=C(/C)CCC[C@H](C)[C@@H]1O [Epothilone N, (4S,7R,8S,9S,13(Z),16S(Z))-4,8-Dihydroxy-16-(1-fluoro-2-(2-methyloxazol-4-yl)ethenyl)-7-(prop-2-in-1-yl)-1-oxa-5,5,9,13-tetramethyl-cyclohexadec-13-ene-2,6-dione]	1.1 ± 0.1	–	1.2 ± 0.2	–	1.5 ± 0.3	–	1.6 ± 0.4	–	–	0.94	–	0.97	–	0.98	–	0.96	–	small weight loss	–
C#CCC[C@H]1C(=O)C(C)(C)[C@@H](O)CC(=O)O[C@H](/C(C)=C/c2ccccn2)C/C=C(/C)CCC[C@H](C)[C@@H]1O [Epothilone I, (4S,7R,8S,9S,13(Z),16S(E))-4,8-Dihydroxy-16-(1-methyl-2-(2-pyridyl)ethenyl)-1-oxa-5,5,9,13-tetramethyl-7-(but-3-in-1-yl)-cyclohexadec-13-ene-2,6-dione]	1.2 ± 0.1	–	1.3 ± 0.3	–	1.4 ± 0.3	–	1.5 ± 0.1	–	–	0.93	–	0.97	–	0.97	–	0.98	–	small weight loss	–
C=CC[C@H]1C(=O)C(C)(C)[C@@H](O)CC(=O)O[C@H](/C(C)=C/c2csc(C)n2)C/C=C(/C)CCC[C@H](C)[C@@H]1O [Epothilone K, (4S,7R,8S,9S,13(Z),16S(E))-4,8-Dihydroxy-16-(1-methyl-2-(2-methylthiazol-4-yl)ethenyl)-1-oxa-5,5,9,13-tetramethyl-7-(prop-2-en-1-yl)-cyclohexadec-13-ene-2,6-dione]	–	1.1 ± 0.1	–	1.3 ± 0.3 and 1.3 ± 0.1	–	1.5 ± 0.2	–	1.6 ± 0.1 and 1.5 ± 0.2	small weight loss	–	–	–	–	–	–	–	–	–	–
